Assay results published in patent US20240041042A1, “1-(PYRIDYL)-5-AZINYLPYRAZOLE DERIVATIVES, AND THEIR USE FOR CONTROL OF UNDESIRED PLANT GROWTH” (Bayer Aktiengesellschaft, priority 2020, published 2024).
Read-outs that look alike come from different tables or passages of the source.

How the values were obtained:
Assay type in all cases: in vivo
[1] = test system: Alopecurus myosuroides (ALOMY); assay: Pre-emergence herbicidal action against ALOMY; settings: 320 g/ha; scored visually after about 3 weeks; 100% = plants have died
Method in brief: (§1)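 Read-out is visual percent damage relative to untreated pots, with 100% meaning dead plants and 0% meaning no difference, assessed roughly three weeks after treatment. Compounds were applied pre-emergence to the covering soil at up to 320 g/ha.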

[2] = test system: Amaranthus retroflexus (AMARE); assay: Pre-emergence herbicidal action against AMARE; settings: visual scoring after about 3 weeks vs untreated controls
Method in brief: as §1

[3] = test system: Avena fatua (AVEFA); assay: Pre-emergence herbicidal action against AVEFA; settings: 320 g/ha, visual scoring after about 3 weeks vs untreated controls
Method in brief: as §1

[4] = test system: Lolium rigidum (LOLRI); assay: Pre-emergence herbicidal action against LOLRI
Method in brief: as §1

[5] = test system: Pharbitis purpurea (PHBPU); assay: Pre-emergence herbicidal action against PHBPU; settings: dosage 320 g/ha
Method in brief: as §1

[6] = test system: Polygonum convolvulus (POLCO); assay: Pre-emergence herbicidal action against POLCO; settings: dosage 320 g/ha
Method in brief: as §1

[7] = test system: Verconica persica (VERPE); assay: Pre-emergence herbicidal action against VERPE
Method in brief: as §1

[8] = test system: Viola tricolor (VIOTR); assay: Pre-emergence herbicidal action against VIOTR
Method in brief: as §1

[9] = test system: Brassica napus (BRSNW); settings: crop plant compatibility, in comparison to untreated controls
Method in brief: (§2)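 Scoring: visual, % of untreated control, about 3 weeks after a pre-emergence application to the soil surface. Application used WP or EC formulations diluted in water with 0.5% additive at 600 l/ha; dosage levels are marked by suffixes a, b and c.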

[10] = test system: Oryza sativa (ORYSA); settings: pre-emergence, crop plant compatibility, in comparison to untreated controls
Method in brief: as §2

[11] = test system: Zea mays (ZEAMX); settings: pre-emergence, crop plant compatibility, in comparison to untreated controls
Method in brief: as §2

[12] = test system: Alopecurus myosuroides (ALOMY); assay: Post-emergence herbicidal action against ALOMY; settings: visual rating about 3 weeks after treatment vs untreated controls (100% = plants have died, 0% = like control plants)
Method in brief: (§3)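 Values are percent visual activity (0% like control, 100% plants dead) after about 3 weeks in the greenhouse. Treatment: post-emergence spray at one-leaf stage, 600 l/ha spray volume, 0.5% additive, doses 320 g/ha or lower.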

[13] = test system: Amaranthus retroflexus (AMARE); assay: Post-emergence herbicidal action against AMARE
Method in brief: as §3

[14] = test system: Avena fatua (AVEFA); assay: Post-emergence herbicidal action against AVEFA; settings: visual rating about 3 weeks after treatment
Method in brief: as §3

[15] = test system: Echinochloa crus-galli (ECHCG); assay: Post-emergence herbicidal action against ECHCG
Method in brief: as §3

[16] = test system: Lolium rigidum (LOLRI); assay: Post-emergence herbicidal action against LOLRI
Method in brief: as §3

[17] = test system: Polygonum convolvulus (POLCO); assay: Post-emergence herbicidal action against POLCO
Method in brief: as §3

[18] = test system: Setaria viridis (SETVI); assay: Post-emergence herbicidal action against SETVI; settings: dosage 320 g/ha
Method in brief: as §3

[19] = test system: Verconica persica (VERPE); assay: Post-emergence herbicidal action against VERPE
Method in brief: as §3

[20] = test system: Viola tricolor (VIOTR); assay: Post-emergence herbicidal action against VIOTR
Method in brief: as §3

[21] = test system: Oryza sativa (ORYSA); settings: crop plant compatibility, 80 g/ha, effect in comparison to untreated controls
Method in brief: (§4)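 Percent effect on the crop was judged by eye against untreated controls, where 0% means like control and 100% means dead plants. Plants had been sprayed post-emergence at the one-leaf stage and then kept under optimum greenhouse conditions for about 3 weeks.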

[22] = test system: Zea mays (ZEAMX); settings: crop plant compatibility, effect vs untreated controls
Method in brief: as §4

[23] = test system: Abutilon theophrasti (ABUTH); assay: Pre-emergence herbicidal action against ABUTH; settings: 100% = plants have died
Method in brief: as §1

[24] = test system: Matricaria inodora (MATIN); assay: Pre-emergence herbicidal action against MATIN
Method in brief: as §1

[25] = test system: Abutilon theophrasti (ABUTH); assay: Post-emergence herbicidal action against ABUTH; settings: visual rating about 3 weeks after treatment vs untreated controls (100% = plants have died, 0% = like control plants)
Method in brief: as §3

[26] = test system: Pharbitis purpurea (PHBPU); assay: Post-emergence herbicidal action against PHBPU
Method in brief: as §3

[27] = test system: Digitaria sanguinalis (DIGSA); assay: Pre-emergence herbicidal action against DIGSA; settings: dosage 320 g/ha
Method in brief: as §1

[28] = test system: Triticum aestivum (TRZAS); settings: crop plant compatibility, 80 g/ha, effect vs untreated controls
Method in brief: as §4

[29] = test system: Setaria viridis (SETVI); assay: Pre-emergence herbicidal action against SETVI; settings: dosage 320 g/ha
Method in brief: as §1

[30] = test system: Echinochloa crus-galli (ECHCG); assay: Pre-emergence herbicidal action against ECHCG; settings: dosage 320 g/ha
Method in brief: as §1

[31] = 320 g/ha, visual rating about 3 weeks after treatment
[32] = Dosage column 320 g/ha (title prints 3200 g/ha), scored visually after about 3 weeks

Row | SMILES | Pre-emergence action against BRSNW in % ([9]; 80 g/ha) [%] | Pre-emergence action against ORYSA in % ([10]; 80 g/ha) [%] | Pre-emergence action against ZEAMX in % ([11]; 80 g/ha) [%] | Post-emergence action against ORYSA in % [21] [%] | Post-emergence action against ZEAMX in % ([22]; 80 g/ha) [%] | Pre-emergence action against ALOMY [1] [%] | Pre-emergence action against AMARE in % ([2]; 320 g/ha) [%] | Pre-emergence action against AVEFA in % [3] [%] | Pre-emergence action against LOLRI in % ([4]; dosage 320 g/ha) [%] | Pre-emergence action against PHBPU in % [5] [%] | Pre-emergence action against POLCO in % [6] [%] | Pre-emergence action against VIOTR in % ([8]; 320 g/ha, Viola tricolor) [%] | Post-emergence action against ALOMY in % ([12]; 320 g/ha) [%] | Post-emergence action against AMARE in % [13, 31] [%] | Post-emergence action against AVEFA in % ([14]; 320 g/ha) [%] | Post-emergence action against ECHCG in % ([15]; dosage 80 g/ha) [%] | Post-emergence action against ECHCG in % ([15]; dosage 320 g/ha) [%] | Post-emergence action against LOLRI in % ([16]; dosage 320 g/ha) [%] | Post-emergence action against POLCO in % ([17]; dosage 320 g/ha) [%] | Post-emergence action against VERPE in % ([19]; 320 g/ha, VERPE) [%] | other results
1 | COC(=O)C=CC(C)NC(=O)COc1nn(-c2ccccn2)c(-c2ccc(F)nc2)c1Br (stereo not drawn) [Example I-297] | 20 | 10 | 10 | – | – | 80 | 80 | – | – | – | – | – | – | – | – | – | – | – | – | 80 | Pre-emergence action against DIGSA in % [27]: 80%; Pre-emergence action against ORYSA in % ([10]; 320 g/ha): 20%; Post-emergence action against TRZAS in % [28]: 10%; Post-emergence action against ZEAMX in % ([22]; 320 g/ha): 0%
2 | COC(=O)CCOC(=O)COc1nn(-c2ncccc2F)c(-c2ccc(F)nc2)c1Cl [Example I-272] | 0 | 10 | 0 | 10 | 10 | 90 | 90 | 100 | 80 | – | – | 90 | 90 | – | 80 | – | 80 | – | 80 | 80 | Pre-emergence action against SETVI in % [29]: 90%; Post-emergence action against SETVI in % [18]: 80%

Continued, in another order:

Row | Pre-emergence action against BRSNW in % ([9]; 80 g/ha) [%] | Pre-emergence action against ORYSA in % ([10]; 80 g/ha) [%] | Pre-emergence action against ZEAMX in % ([11]; 80 g/ha) [%] | Post-emergence action against ORYSA in % [21] [%] | Post-emergence action against ZEAMX in % ([22]; 80 g/ha) [%] | SMILES | Pre-emergence action against ALOMY [1] [%] | Pre-emergence action against AMARE in % ([2]; 320 g/ha) [%] | Pre-emergence action against AVEFA in % [3] [%] | Pre-emergence action against LOLRI in % ([4]; dosage 320 g/ha) [%] | Pre-emergence action against PHBPU in % [5] [%] | Pre-emergence action against POLCO in % [6] [%] | Pre-emergence action against VIOTR in % ([8]; 320 g/ha, Viola tricolor) [%] | Post-emergence action against ALOMY in % ([12]; 320 g/ha) [%] | Post-emergence action against AMARE in % [13, 31] [%] | Post-emergence action against AVEFA in % ([14]; 320 g/ha) [%] | Post-emergence action against ECHCG in % ([15]; dosage 80 g/ha) [%] | Post-emergence action against ECHCG in % ([15]; dosage 320 g/ha) [%] | Post-emergence action against LOLRI in % ([16]; dosage 320 g/ha) [%] | Post-emergence action against POLCO in % ([17]; dosage 320 g/ha) [%] | Post-emergence action against VERPE in % ([19]; 320 g/ha, VERPE) [%] | other results
3 | 0 | 0 | 20 | 0 | 0 | CCOC(=O)COc1nn(-c2ncccc2C(F)(F)F)c(-c2ccc(F)nc2)c1Br [Example I-335] | 80 | 90 | 80 | 90 | 80 | 90 | 100 | 100 | 80 | 90 | 80 | 90 | 90 | 80 | 90 | Pre-emergence action against VERPE in % ([7]; dosage 320 g/ha): 80%; Pre-emergence action against BRSNW in % ([9]; 320 g/ha): 0%; Post-emergence action against AMARE in % ([13]; 80 g/ha, visual rating about 3 weeks after treatment vs untreated controls (100% = plants have died, 0% = like control plants)): 80%; Post-emergence action against POLCO in % ([17]; dosage 80 g/ha): 80%; Post-emergence action against SETVI in % [18]: 90%; Post-emergence action against VERPE in % ([19]; dosage 80 g/ha): 90%; Post-emergence action against VIOTR in % ([20]; 80 g/ha): 80%; Post-emergence action against VIOTR in % ([20]; 320 g/ha): 90%; Post-emergence action against ZEAMX in % ([22]; 320 g/ha): 20%
4 | 20 | – | 0 | 20 | 0 | CCOC(=O)COc1nn(-c2ncccc2C(F)(F)F)c(-c2ccc(F)nc2)c1Cl [Example I-325] | 100 | 100 | 100 | 100 | 80 | 90 | 100 | 100 | 80 | – | 90 | 90 | 90 | 80 | 90 | Pre-emergence action against ABUTH ([23]; 80 g/ha, scored visually after about 3 weeks vs untreated controls, 0% = like control plants): 90%; Pre-emergence action against ABUTH [23, 32]: 90%; Pre-emergence action against AMARE in % ([2]; 80 g/ha): 100%; Pre-emergence action against MATIN in % ([24]; dosage 80 g/ha): 100%; Pre-emergence action against MATIN in % ([24]; dosage 320 g/ha): 100%; Pre-emergence action against VIOTR in % ([8]; dosage 80 g/ha): 90%; Pre-emergence action against ZEAMX in % ([11]; 320 g/ha): 0%; Post-emergence action against ABUTH in % ([25]; 80 g/ha): 80%; Post-emergence action against ABUTH in % ([25]; 320 g/ha): 90%; Post-emergence action against ALOMY in % ([12]; 80 g/ha): 80%; Post-emergence action against PHBPU in % ([26]; dosage 320 g/ha): 80%; Post-emergence action against VERPE in % ([19]; dosage 80 g/ha): 80%; Post-emergence action against VIOTR in % ([20]; 80 g/ha): 90%; Post-emergence action against VIOTR in % ([20]; 320 g/ha): 90%
5 | 20 | – | – | 0 | 10 | COC(=O)[C@@H](C)Oc1nn(-c2nc(F)ccc2F)c(-c2ccc(F)nc2)c1Br [Example I-319] | 100 | 100 | 100 | 100 | 90 | 90 | 100 | 90 | 80 | 80 | 80 | 90 | 80 | 80 | 80 | Pre-emergence action against ABUTH [23, 32]: 80%; Pre-emergence action against ECHCG in % [30]: 100%; Pre-emergence action against LOLRI in % ([4]; dosage 80 g/ha): 90%; Pre-emergence action against MATIN in % ([24]; dosage 320 g/ha): 90%; Pre-emergence action against SETVI in % [29]: 100%; Pre-emergence action against VERPE in % ([7]; dosage 80 g/ha): 80%; Pre-emergence action against VERPE in % ([7]; dosage 320 g/ha): 90%; Pre-emergence action against VIOTR in % ([8]; dosage 80 g/ha): 100%; Post-emergence action against ABUTH in % ([25]; 320 g/ha): 80%; Post-emergence action against ALOMY in % ([12]; 80 g/ha): 90%; Post-emergence action against AVEFA in % ([14]; 80 g/ha): 80%; Post-emergence action against LOLRI in % ([16]; dosage 80 g/ha): 80%; Post-emergence action against PHBPU in % ([26]; dosage 80 g/ha): 80%; Post-emergence action against PHBPU in % ([26]; dosage 320 g/ha): 90%; Post-emergence action against SETVI in % [18]: 80%; Post-emergence action against VIOTR in % ([20]; 80 g/ha): 80%; Post-emergence action against VIOTR in % ([20]; 320 g/ha): 90%
